Assay results from patent US11559526B2, “Drug effective for lymphogenous drug administrating method” (TOHOKU UNIVERSITY, priority 2016, dated 2023).
Counter-ions that a name gives are not always drawn.

What was measured:
[1] = system: KM-Luc/GFP cells; assay: Anticancer activity after administration into the accessory axillary lymph node, mouse model of proper axillary lymph node metastasis (KM-Luc/GFP), luciferase imaging; format: in vivo; design: key to Luciferase activity ratio calculated by Expression 3: day9/day6 normalized luciferase ratio, 0 μg/g set to 100; conditions: for Luciferase activity ratio calculated by Expression 3: 0 μg/g set to 100
Protocol: As a mouse model of lymphadenopathy, MXH10/Mo/lpr/lpr (MXH10/Mo/lpr) mice were prepared in accordance with the method previously reported (J Immunol Methods 2013; 389 (1-2): 69-78 doi 10.1016/j.jim.2013.01.004). In the following Examples, in total, 5 male and female model mice aged 15 to 18 weeks were used.
Mouse fibroblast-derived KM-Luc/GFP cells were prepared in accordance with the method previously reported (PLoS One 2013; 8 (2): e55797 doi 10.1371/journal.pone.0055797). The KM-Luc/GFP cells were obtained by transfecting MRL/MpTn-gld/gld mouse fibroblast-derived cancer cells, MRL/N1 cells, with pEGFPLuc plasmid. The KM-Luc/GFP cells constantly express a luciferase gene and a green fluorescent gene. In the following Examples, the cells were cultured in Dulbecco's modified Eagle's medium (manufactured by Sigma-Aldrich) containing 10% FBS (fetal bovine serum), 1% L-Glutamine-P.S. solution (manufactured by Thermo Fisher Scientific) and 0.5% G418 and put in use.
(§1) KM-Luc/GFP (cancer) cells, which were prepared by thawing the cells stored at −80° C. and thereafter sub-culturing them twice in total, were suspended in PBS (phosphate buffered saline) and the concentration thereof was controlled to be 1.0×10^6 cells/mL. Thereafter, the cell suspension was mixed with Matrigel (basement membrane matrix, manufactured by Becton, Dickinson and Co.) and diluted to a concentration of 3.3×10^5 cells/mL, and then, the resultant (60 μL) was inoculated into mouse subiliac lymph node (FIG. 1). The day when the cancer cells were inoculated was specified as day 0.
(§2) Using a biological fluorescence imaging system (IVIS manufactured by Caliper Life Science), the growth rates of cancer cells in the subiliac lymph node and proper axillary lymph node were determined on day 0, day 6 and day 9 after inoculation of the cancer cells. 200 μL of luciferin (manufactured by Promega), the concentration of which was controlled to be 15 mg/mL, was injected into the abdominal cavity of the mouse. Ten minutes later, luciferase activity was determined using the IVIS.
Of the mice on day 6 after cancer cell inoculation, mice having a luciferase activity of 1.0×10^6 photons/sec or more in the proper axillary lymph node were selected, and 120 μL of 5-FU was administered to the accessory axillary lymph node at a rate of 10 μL/min by use of a syringe pump (KDS100, manufactured by Muromachi) (FIG. 1).
The luciferase activities on day 6 and day 9 were normalized in accordance with the following [Expression 1]. Thereafter, the ratio of the normalized luciferase activity on day 9 to that on day 6 was calculated in accordance with the following [Expression 2]. The ratio of the normalized luciferase activity on day 9 to that on day 6 at each administration concentration of 5-FU, when the ratio of the normalized luciferase activity on day 9 to that on day 6 at administration of 0 μg/g was set to 100, was calculated in accordance with the following [Expression 3]. Normalized luciferase activity on day 6 or day 9=((luciferase activity on day 6 or day 9)/(luciferase activity on day 0)) [Expression 1] Ratio of normalized luciferase activity on day 9 to that on day 6=((normalized luciferase activity on day 9)/(normalized luciferase activity on day 6)) [Expression 2] Ratio of normalized luciferase activity on day 9 to that on day 6 at each administration concentration of 5-FU, when the ratio of normalized luciferase activity on day 9 to that on day 6 at administration of 0 μg/g was set to 100,=((ratio of normalized luciferase activity on day 9 to that on day 6 at each administration concentration of 5-FU)/(ratio of normalized luciferase activity on day 9 to that on day 6 at administration of 0 μg/g)×100) [Expression 3] 3. Results […]
The same method as in Example 1 was employed except that the test drug to be administered to the accessary axillary lymph node was changed to doxorubicin.

[2] = system: cancer cell strain; conditions: cited from earlier work
[3] = system: FM3A-Luc cells; assay: Anticancer activity of docetaxel administered into a lymph node, mouse model of proper axillary lymph node metastasis (FM3A-Luc), luciferase imaging; format: in vivo; conditions: for Luciferase activity ratio calculated by Expression 6 (day 6^T): day 6^T to day −1^T
Protocol: Mouse breast cancer cell-derived FM3A-Luc cells were prepared in accordance with the method previously reported (J Immunol Methods 2013 Mar 29; 389 (1-2): 69-78. doi: 10.1016/j.jim.2013.01.004.). The FM3A-Luc cells were obtained by gene-introduction of pGL4.51 into FM3A cells by means of electroporation and constantly express a luciferase gene. In the following Examples, the cells were cultured in RPMI-1640 (manufactured by Sigma-Aldrich) containing 10% FBS (fetal bovine serum), 1% of an L-Glutamine-P.S. solution (manufactured by Theimo Fisher Scientific) and 0.5% of G418 and put in use.
As docetaxel, taxotere for intravenous infusion, 80 mg (manufactured by Sanofi K. K.) was used. Taxotere for intravenous infusion 80 mg (2 mL) was dissolved in 13% ethanol (6 mL) to prepare a 10 mg/mL stock solution. Thereafter, the stock solution was dissolved with sterile water in such a way that the concentration per mouse body-weight became 0 μg/g, 1 μg/g and 10 μg/g.
as §1, with “FM3A-Luc (cancer) cells,” for “KM-Luc/GFP (cancer) cells,”, “thawing the cancer cells stored” for “thawing the cells stored”, “were suspended with PBS (phosphate” for “were suspended in PBS (phosphate”, “and diluted up to a” for “and diluted to a”
as §2, with “7, day 14, day 17, day 20, day 23, day 26” for “6”, “29” for “9”
To a mouse confirmed to have a luciferase activity of 1.0×10^6 photons/sec or more in the proper axillary lymph node, docetaxel (120 μL) was administered to the accessory axillary lymph node on the day following confirmation at a rate of 10 μL/min by use of a syringe pump (KDS100, manufactured by Muromachi) (FIG. 1).
The day when docetaxel was administered was defined as day 0^T. The luciferase activity on day 3^T (3 days after administration of docetaxel) and the luciferase activity on day 6^T (6 days after administration of docetaxel) were normalized in accordance with the following [Expression 4]. Thereafter, the ratio of the normalized luciferase activity on day 3^T or day 6^T to that on day −1^T (the day when the luciferase activity in the proper axillary lymph node was confirmed to be 1.0×10^6 photons/sec or more and the day before docetaxel administration) was calculated in accordance with the following [Expression 5]. The ratio of the normalized luciferase activity on day 3^T or day 6^T to that on day −1^T at each administration concentration of docetaxel, when the ratio of the normalized luciferase activity on day 3^T or day 6^T to that on day −1^T at administration of 0 μg/g was set to 100, was calculated in accordance with the following [Expression 6]. […]

[4] = system: cancer-containing proper axillary lymph node (PALN); conditions: administration through the subiliac lymph node (SiLN); cited from earlier work
[5] = 0.1 μg/g into accessory axillary lymph node, day 9 to day 6 ratio in proper axillary lymph node
[6] = 1 μg/g into accessory axillary lymph node, day 9 to day 6 ratio
[7] = 10 μg/g into accessory axillary lymph node, day 9 to day 6 ratio

O=c1[nH]cc(F)c(=O)[nH]1 [5-FU, 5-fluorouracil]
Luciferase activity ratio calculated by Expression 3 [1, 5]: 9.27 | Luciferase activity ratio calculated by Expression 3 [1, 6]: 9.12 | Luciferase activity ratio calculated by Expression 3 [1, 7]: 1.49 | tumor regression effect ([1]; dose 0.1 μg/g): ≥ 90%

CCc1c2c(nc3ccc(OC(=O)N4CCC(N5CCCCC5)CC4)cc13)-c1cc3c(c(=O)n1C2)COC(=O)[C@]3(O)CC [CPT-11, irinotecan hydrochloride]
Luciferase activity ratio calculated by Expression 3 ([1]; 0.5 μg/g into accessory axillary lymph node, day 9 to day 6 ratio): 6.06 | Luciferase activity ratio calculated by Expression 3 ([1]; 5 μg/g into accessory axillary lymph node, day 9 to day 6 ratio): 3.03 | tumor regression effect ([1]; dose 0.5 μg/g): ≥ 90%

CC(=O)O[C@@]12CO[C@@H]1C[C@H](O)[C@@]1(C)C(=O)[C@H](O)C3=C(C)[C@@H](OC(=O)[C@H](O)[C@@H](NC(=O)OC(C)(C)C)c4ccccc4)C[C@@](O)([C@@H](OC(=O)c4ccccc4)[C@H]21)C3(C)C [Docetaxel, docetaxel]
cell growth inhibitory activity of docetaxel compared with doxorubicin [2]: almost equal to that of doxorubicin | Luciferase activity ratio calculated by Expression 6 (day 6^T) ([3]; 1 μg/g into accessory axillary lymph node, 0 μg/g set to 100): 7.5 | Luciferase activity ratio calculated by Expression 6 (day 3^T) ([3]; 10 μg/g into accessory axillary lymph node, day 3^T to day −1^T, 0 μg/g set to 100): 16.2 | Luciferase activity ratio calculated by Expression 6 (day 6^T) ([3]; 10 μg/g into accessory axillary lymph node, 0 μg/g set to 100): 1.7 | tumor regression effect ([3]; dose 1 μg/g, day 6 after initiation of treatment): ≥ 90% | tumor reduction ratio ([3]; dose 10 μg/g): ≥ 80%

COc1cccc2c1C(=O)c1c(O)c3c(c(O)c1C2=O)C[C@@](O)(C(=O)CO)C[C@@H]3O[C@H]1C[C@H](N)[C@H](O)[C@H](C)O1 [Doxorubicin, doxorubicin hydrochloride]
Luciferase activity ratio calculated by Expression 3 [1, 5]: 40.9 | Luciferase activity ratio calculated by Expression 3 [1, 6]: 43.2 | Luciferase activity ratio calculated by Expression 3 [1, 7]: 75.0 | best tumor reduction ratio ([1]; dose 1 μg/g): less than 60% | tumor reduction ratio ([1]; dose 10 μg/g): about 25% | cell growth inhibitory activity (GI50 value) of doxorubicin, times as high as those of 5-FU and CPT-11 [2]: 10 to 1,000 times | anticancer effect in the proper axillary lymph node [4]: resulted in an anticancer effect
